Reference: patent US20250255771A1, “OPHTHALMIC DEVICES FOR MANAGEMENT OF WATER VAPOR TRANSMISSIBILITY, DELIVERY OF PHARMACEUTICAL AGENTS, AND NON-SURGICAL CORNEAL RESHAPING” (OCULAR SURFACE INNOVATIONS INC., priority 2024, published 2025)

Columns and labels:
[1] = same polydimethylsiloxane devices; stated as known; cited from earlier work
[2] = Selective transfer of molecules through ultrahigh Dk lens material; assay type: physicochemical; conditions: ultrahigh Dk lens material selective to molecules by size
Text: The inventors discovered an ultrahigh Dk lens material that is selective to the transfer of molecules based on their size. […] The material has value in reverse osmosis systems because of its selective permeability. Its transmissibility may be regulated by the thickness profile of the ophthalmic device or may be further regulated by the addition of surface modification or fillers within the substrate of the material that produce selective permeability related to polar surface area or the molecular weight of a permeant.

[3] = Retention of permeants under polydimethylsiloxane devices during wearing; conditions: devices 14.3 mm overall diameter, thickness greater than 0.400 mm; not found in device substrate after removal or in pre device tear film during wearing

SMILES | transmissibility through the devices [1] | transfer through the material [2] | retention of permeant behind the device (permeation through device) [3]
CCO [ethanol] | high transmissibility | – | –
O=O [oxygen] | high transmissibility | will transfer | –
[Cl-].[Na+] [sodium chloride] | – | will not transfer | –
O=C([O-])c1ccccc1-c1c2ccc(=O)cc-2oc2cc([O-])ccc12.[Na+].[Na+] [sodium fluorescein] | – | – | retained in the post lens tear space
O [water vapor] | high transmissibility | will transfer | –
